Values belong to the compound of their own block, whether it stands above or below them. Calls of active or inactive are those of the source. The calls are words filed in the database; no cut-off is given here.
Tests used:
[1] = biological target: Phosphatidylinositol 4,5-bisphosphate 3-kinase catalytic subunit alpha isoform (Homo sapiens, UniProt P42336); assay: Inhibition of PI3Kalpha (unknown origin) using PIP2 as substrate after 1 hr by Kinase-Glo luminescent kinase assay
[2] = test system: HepG2; assay: Antiproliferative activity against human HepG2 cells at 1 to 50 uM after 48 hrs by MTT assay; type: functional, cell-based
[3] = biological target: T1, Protein cereblon-pI3K (Homo sapiens) (UniProt P42338+P48736+P42336+O00329+Q96SW2); assay: Protac activity against PI3K/E3 ligase in human HepG2 cells assessed as reduction in Akt phosphorylation at Ser-473 residue in human HepG2 cells after 24 hrs by Western blot analysis; type: cell-based
[4] = biological target: T1, Protein cereblon-pI3K (Homo sapiens); assay: Protac activity against PI3K/E3 ligase in human HepG2 cells assessed as reduction in phosphorylated S6K protein level in human HepG2 cells after 24 hrs by Western blot analysis; type: cell-based
[5] = biological target: T1, Protein cereblon-pI3K (Homo sapiens); assay: Protac activity against PI3K/E3 ligase in human HepG2 cells assessed as reduction in phosphorylated GSK3beta protein level at 10 uM in human HepG2 cells by Western blot analysis; type: cell-based; conditions: TDE = time-dependent effect
[6] = biological target: T1, Protein cereblon-pI3K (Homo sapiens); assay: Protac activity against PI3K/E3 ligase in human HepG2 cells assessed as reduction in cyclin D1 protein level at 10 uM in human HepG2 cells by Western blot analysis; type: cell-based; conditions: TDE = time-dependent effect
[7] = biological target: T1, Protein cereblon-pI3K (Homo sapiens); assay: Protac activity against PI3K/E3 ligase in human HepG2 cells assessed as increase in conversion of LC3B-1 to LC3B-2 at 10 uM after 3 hrs in human HepG2 cells by Western blot analysis; type: cell-based
[8] = test system: HepG2; assay: Antiproliferative activity against human HepG2 cells assessed as inhibition of cell proliferation at 10 uM after 48 hrs by MTT assay; type: functional; conditions: HepG2, 48 h
[9] = biological target: T1, Protein cereblon-pI3K (Homo sapiens); assay: Protac activity against PI3K/E3 ligase in human HepG2 cells assessed as induction of p110alpha protein degradation at 10 uM in human HepG2 cells by Western blot analysis; type: cell-based
[10] = test system: HepG2; assay: Induction of apoptosis in human HepG2 cells assessed as necrotic cells at 5 uM after 24 hrs by Annexin V-FITC/propidium iodide staining-based flow cytometric analysis (reference value: 0.052%); type: functional
[11] = test system: HepG2; assay: Induction of apoptosis in human HepG2 cells assessed as late apoptotic cells at 5 uM after 24 hrs by Annexin V-FITC/propidium iodide staining-based flow cytometric analysis (reference value: 7.34%); type: functional
[12] = test system: HepG2; assay: Induction of apoptosis in human HepG2 cells assessed as early apoptotic cells at 5 uM after 24 hrs by Annexin V-FITC/propidium iodide staining-based flow cytometric analysis (reference value: 2.46%); type: functional
[13] = test system: HepG2; assay: Induction of apoptosis in human HepG2 cells assessed as viable cells at 5 uM after 24 hrs by Annexin V-FITC/propidium iodide staining-based flow cytometric analysis (reference value: 90.1%); type: functional; conditions: HepG2, 24 h, read-out: Activity
[14] = test system: HepG2; assay: Induction of apoptosis in human HepG2 cells assessed as necrotic cells at 10 uM after 24 hrs by Annexin V-FITC/propidium iodide staining-based flow cytometric analysis (reference value: 0.052%); type: functional
[15] = test system: HepG2; assay: Induction of apoptosis in human HepG2 cells assessed as late apoptotic cells at 10 uM after 24 hrs by Annexin V-FITC/propidium iodide staining-based flow cytometric analysis (reference value: 7.34%); type: functional
[16] = test system: HepG2; assay: Induction of apoptosis in human HepG2 cells assessed as early apoptotic cells at 10 uM after 24 hrs by Annexin V-FITC/propidium iodide staining-based flow cytometric analysis (reference value: 2.46%); type: functional
[17] = test system: HepG2; assay: Induction of apoptosis in human HepG2 cells assessed as viable cells at 10 uM after 24 hrs by Annexin V-FITC/propidium iodide staining-based flow cytometric analysis (reference value: 90.1%); type: functional; conditions: HepG2, 24 h, read-out: Activity
[18] = test system: HepG2; assay: Induction of apoptosis in human HepG2 cells assessed as necrotic cells at 25 uM after 24 hrs by Annexin V-FITC/propidium iodide staining-based flow cytometric analysis (reference value: 0.052%); type: functional
[19] = test system: HepG2; assay: Induction of apoptosis in human HepG2 cells assessed as late apoptotic cells at 25 uM after 24 hrs by Annexin V-FITC/propidium iodide staining-based flow cytometric analysis (reference value: 7.34%); type: functional
[20] = test system: HepG2; assay: Induction of apoptosis in human HepG2 cells assessed as early apoptotic cells at 25 uM after 24 hrs by Annexin V-FITC/propidium iodide staining-based flow cytometric analysis (reference value: 2.46%); type: functional
[21] = test system: HepG2; assay: Induction of apoptosis in human HepG2 cells assessed as viable cells at 25 uM after 24 hrs by Annexin V-FITC/propidium iodide staining-based flow cytometric analysis (reference value: 90.1%); type: functional; conditions: HepG2, 24 h, read-out: Activity
[22] = test system: HepG2; assay: Cell cycle arrest in human HepG2 cells assessed as accumulation at G0/G1 phase at 5 uM after 24 hrs by flow cytometric analysis (reference value: 86.6%); type: functional
[23] = test system: HepG2; assay: Cell cycle arrest in human HepG2 cells assessed as accumulation at S phase at 5 uM after 24 hrs by flow cytometric analysis (reference value: 3.77%); type: functional
[24] = test system: HepG2; assay: Cell cycle arrest in human HepG2 cells assessed as accumulation at G2/M phase at 5 uM after 24 hrs by flow cytometric analysis (reference value: 9.25%); type: functional
[25] = test system: HepG2; assay: Cell cycle arrest in human HepG2 cells assessed as accumulation at G0/G1 phase at 10 uM after 24 hrs by flow cytometric analysis (reference value: 86.6%); type: functional
[26] = test system: HepG2; assay: Cell cycle arrest in human HepG2 cells assessed as accumulation at S phase at 10 uM after 24 hrs by flow cytometric analysis (reference value: 3.77%); type: functional
[27] = test system: HepG2; assay: Cell cycle arrest in human HepG2 cells assessed as accumulation at G2/M phase at 10 uM after 24 hrs by flow cytometric analysis (reference value: 9.25%); type: functional
[28] = test system: HepG2; assay: Cell cycle arrest in human HepG2 cells assessed as accumulation at G0/G1 phase at 25 uM after 24 hrs by flow cytometric analysis (reference value: 86.6%); type: functional
[29] = test system: HepG2; assay: Cell cycle arrest in human HepG2 cells assessed as accumulation at S phase at 25 uM after 24 hrs by flow cytometric analysis (reference value: 3.77%); type: functional
[30] = test system: HepG2; assay: Cell cycle arrest in human HepG2 cells assessed as accumulation at G2/M phase at 25 uM after 24 hrs by flow cytometric analysis (reference value: 9.25%); type: functional
[31] = test system: HepG2; assay: Induction of autophagy in GFP-LC3 transfected human HepG2 cells assessed as increase in LC3 puncta at 10 uM after 6 hrs by DAPI staining-based fluorescence microscopy; type: functional, cell-based

- IC50 [1]: 38 nM
Structure (SMILES): O=C(CCC(=O)NCCCC(=O)Nc1cccc2c1C(=O)N(C1CCC(=O)NC1=O)C2=O)NCCCCCC(=O)N1CCN(c2nc(N3CCOCC3)nc(-n3c(C(F)F)nc4ccccc43)n2)CC1 (stereo unspecified)
- Activity [2]: inactive

- IC50 [1]: 2850 nM
Structure (SMILES): O=C1CCC(N2C(=O)c3cccc(NC(=O)CCCCCN4CCN(c5nc(N6CCOCC6)nc(-n6c(C(F)F)nc7ccccc76)n5)CC4)c3C2=O)C(=O)N1 (stereo unspecified)

- IC50 [1]: 18 nM
- Activity [3]: Dose-dependent effect
- Activity [4]: Dose-dependent effect
- Activity [5]: Tde
- Activity [6]: Tde
- Activity [7]: Active
- Activity [9]: < 50%
Structure (SMILES): O=C(CCC(=O)N1CCN(c2nc(N3CCOCC3)nc(-n3c(C(F)F)nc4ccccc43)n2)CC1)NCCCC(=O)Nc1cccc2c1C(=O)N(C1CCC(=O)NC1=O)C2=O (stereo unspecified)
- Activity [2]: Dose-dependent effect
- inhibition at 10 µM [8]: ≤ 50%

- IC50 [1]: 90 nM
- Activity [3]: Dose-dependent effect
- Activity [4]: Dose-dependent effect
- Activity [5]: Tde
- Activity [6]: Tde
- Activity [7]: Active
- Activity [9]: < 50%
Structure (SMILES): O=C1CCC(N2C(=O)c3cccc(NC(=O)CCCn4cc(CN5CCN(c6nc(N7CCOCC7)nc(-n7c(C(F)F)nc8ccccc87)n6)CC5)nn4)c3C2=O)C(=O)N1 (stereo unspecified)
- Activity [2]: Dose-dependent effect
- inhibition at 10 µM [8]: ≤ 50%

- IC50 [1]: 86 nM
- Activity [3]: Dose-dependent effect
- Activity [4]: Dose-dependent effect
- Activity [5]: Tde
- Activity [6]: Tde
- Activity [7]: Active
- Activity [9]: < 50%
Structure (SMILES): O=C1CCC(N2C(=O)c3cccc(NC(=O)CCCCCn4cc(CN5CCN(c6nc(N7CCOCC7)nc(-n7c(C(F)F)nc8ccccc87)n6)CC5)nn4)c3C2=O)C(=O)N1 (stereo unspecified)
- Activity [2]: Dose-dependent effect
- inhibition at 10 µM [8]: ≤ 50%

- IC50 [1]: 24 nM
- Activity [3]: Dose-dependent effect
- Activity [4]: Dose-dependent effect
- Activity [5]: Tde
- Activity [6]: Tde
- Activity [7]: Active
- Activity [9]: < 50%
Structure (SMILES): O=C(CCC(=O)N1CCN(c2nc(N3CCOCC3)nc(-n3c(C(F)F)nc4ccccc43)n2)CC1)NCCCCCC(=O)Nc1cccc2c1C(=O)N(C1CCC(=O)NC1=O)C2=O (stereo unspecified)
- Activity [2]: Dose-dependent effect
- Activity [10]: 0.152%
- Activity [11]: 17.9%
- Activity [12]: 10.3%
- viability at 5 µM [13]: 71.7%
- Activity [14]: 0.4%
- Activity [15]: 19.3%
- Activity [16]: 14.7%
- viability at 10 µM [17]: 65.6%
- Activity [18]: 0.426%
- Activity [19]: 20.4%
- Activity [20]: 10.3%
- viability at 25 µM [21]: 68.9%
- Activity [22]: 85.6%
- Activity [23]: 3.79%
- Activity [24]: 9.99%
- Activity [25]: 85.6%
- Activity [26]: 3.49%
- Activity [27]: 10.5%
- Activity [28]: 81.3%
- Activity [29]: 5.73%
- Activity [30]: 12.9%
- Activity [31]: Active
- inhibition at 10 µM [8]: ≤ 50%
